According to PubChem BioAssay (NCI):
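GI50 = concentration required for 50% inhibition of growth. TGI denotes the concentration required for complete inhibition of growth.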

Experiments:
Assay in all cases: NCI-60 cell line screen, 384-well format
786-0 renal = test system: 786-0 renal
A498 renal = test system: A498 renal
A549 NSCLC = test system: A549 NSCLC
ACHN renal = test system: ACHN renal
BT-549 breast = test system: BT-549 breast
CAKI-1 renal = test system: CAKI-1 renal
CCRF-CEM leukemia = test system: CCRF-CEM leukemia
COLO 205 colon = test system: COLO 205 colon
DU-145 prostate = test system: DU-145 prostate
EKVX NSCLC = test system: EKVX NSCLC
HCC-2998 colon = test system: HCC-2998 colon
HCT-15 colon = test system: HCT-15 colon
HL-60(TB) leukemia = test system: HL-60(TB) leukemia
HOP-62 NSCLC = test system: HOP-62 NSCLC
HOP-92 NSCLC = test system: HOP-92 NSCLC
HS 578T breast = test system: HS 578T breast
HT29 colon = test system: HT29 colon
IGROV1 ovarian = test system: IGROV1 ovarian
KM12 colon = test system: KM12 colon
M14 melanoma = test system: M14 melanoma
MALME-3M melanoma = test system: MALME-3M melanoma
MCF7 breast = test system: MCF7 breast
MDA-MB-231 breast = test system: MDA-MB-231 breast
MDA-MB-435 melanoma = test system: MDA-MB-435 melanoma
MDA-MB-468 breast = test system: MDA-MB-468 breast
MOLT-4 leukemia = test system: MOLT-4 leukemia
NCI-H226 lung = test system: NCI-H226 lung
NCI-H23 lung = test system: NCI-H23 lung
NCI-H322M lung = test system: NCI-H322M lung
NCI-H460 NSCLC = test system: NCI-H460 NSCLC
NCI-H522 lung = test system: NCI-H522 lung
NCI/ADR-RES ovarian = test system: NCI/ADR-RES ovarian
OVCAR-3 ovarian = test system: OVCAR-3 ovarian
OVCAR-4 ovarian = test system: OVCAR-4 ovarian
OVCAR-5 ovarian = test system: OVCAR-5 ovarian
OVCAR-8 ovarian = test system: OVCAR-8 ovarian
PC-3 prostate = test system: PC-3 prostate
RPMI-8226 leukemia = test system: RPMI-8226 leukemia
RXF 393 renal = test system: RXF 393 renal
SF-268 CNS = test system: SF-268 CNS
SF-295 CNS = test system: SF-295 CNS
SF-539 CNS = test system: SF-539 CNS
SK-MEL-2 melanoma = test system: SK-MEL-2 melanoma
SK-MEL-28 melanoma = test system: SK-MEL-28 melanoma
SK-MEL-5 melanoma = test system: SK-MEL-5 melanoma
SK-OV-3 ovarian = test system: SK-OV-3 ovarian
SN12C renal = test system: SN12C renal
SNB-19 CNS = test system: SNB-19 CNS
SNB-75 CNS = test system: SNB-75 CNS
SR leukemia = test system: SR leukemia
SW-620 colon = test system: SW-620 colon
T-47D breast = test system: T-47D breast
TK-10 renal = test system: TK-10 renal
U251 glioblastoma = test system: U251 glioblastoma
UACC-257 melanoma = test system: UACC-257 melanoma
UACC-62 melanoma = test system: UACC-62 melanoma

N[C@H]1C[C@@H]1c1ccc(-c2cccc(O)c2)cc1
GI50 (786-0 renal): 30.1 µM | TGI (786-0 renal): > 100 µM | GI50 (A498 renal): 20.3 µM | TGI (A498 renal): 60.3 µM | GI50 (A549 NSCLC): 44.9 µM | TGI (A549 NSCLC): > 100 µM | GI50 (ACHN renal): 27 µM | TGI (ACHN renal): 61.7 µM | GI50 (BT-549 breast): 19.5 µM | TGI (BT-549 breast): 48.8 µM | GI50 (CAKI-1 renal): 24.6 µM | TGI (CAKI-1 renal): 50.9 µM | GI50 (CCRF-CEM leukemia): 15 µM | TGI (CCRF-CEM leukemia): 28.4 µM | GI50 (COLO 205 colon): 43.9 µM | TGI (COLO 205 colon): > 100 µM | GI50 (DU-145 prostate): 48.7 µM | TGI (DU-145 prostate): > 100 µM | GI50 (EKVX NSCLC): 30.8 µM | TGI (EKVX NSCLC): > 100 µM | GI50 (HCC-2998 colon): 18.4 µM | TGI (HCC-2998 colon): 38.7 µM | GI50 (HCT-15 colon): 26.7 µM | TGI (HCT-15 colon): 68 µM | GI50 (HL-60(TB) leukemia): 14.3 µM | TGI (HL-60(TB) leukemia): 27.5 µM | GI50 (HOP-62 NSCLC): 17 µM | TGI (HOP-62 NSCLC): 45 µM | GI50 (HOP-92 NSCLC): 29.4 µM | TGI (HOP-92 NSCLC): 72.9 µM | GI50 (HS 578T breast): 16.9 µM | TGI (HS 578T breast): 34.5 µM | GI50 (HT29 colon): 24.6 µM | TGI (HT29 colon): 64.3 µM | GI50 (IGROV1 ovarian): 44.1 µM | TGI (IGROV1 ovarian): > 100 µM | GI50 (KM12 colon): 20.1 µM | TGI (KM12 colon): 37.8 µM | GI50 (M14 melanoma): 20.1 µM | TGI (M14 melanoma): 36.5 µM | GI50 (MALME-3M melanoma): 16.8 µM | TGI (MALME-3M melanoma): 31.1 µM | GI50 (MCF7 breast): 36 µM | TGI (MCF7 breast): > 100 µM | GI50 (MDA-MB-231 breast): 21.1 µM | TGI (MDA-MB-231 breast): 50.3 µM | GI50 (MDA-MB-435 melanoma): 20.9 µM | TGI (MDA-MB-435 melanoma): 46.4 µM | GI50 (MDA-MB-468 breast): 4.18 µM | TGI (MDA-MB-468 breast): 20.1 µM | GI50 (MOLT-4 leukemia): 14.7 µM | TGI (MOLT-4 leukemia): 28 µM | GI50 (NCI-H226 lung): 30.3 µM | TGI (NCI-H226 lung): 96.1 µM | GI50 (NCI-H23 lung): 23.3 µM | TGI (NCI-H23 lung): 65.6 µM | GI50 (NCI-H322M lung): 74.5 µM | TGI (NCI-H322M lung): > 100 µM | GI50 (NCI-H460 NSCLC): 18.1 µM | TGI (NCI-H460 NSCLC): 34.6 µM | GI50 (NCI-H522 lung): 17.9 µM | TGI (NCI-H522 lung): 36.6 µM | GI50 (NCI/ADR-RES ovarian): 38.8 µM | TGI (NCI/ADR-RES ovarian): > 100 µM | GI50 (OVCAR-3 ovarian): 40.6 µM | TGI (OVCAR-3 ovarian): > 100 µM | GI50 (OVCAR-4 ovarian): 39.2 µM | TGI (OVCAR-4 ovarian): > 100 µM | GI50 (OVCAR-5 ovarian): 30.4 µM | TGI (OVCAR-5 ovarian): > 100 µM | GI50 (OVCAR-8 ovarian): 31.8 µM | TGI (OVCAR-8 ovarian): 99.8 µM | GI50 (PC-3 prostate): 29.6 µM | TGI (PC-3 prostate): 95.1 µM | GI50 (RPMI-8226 leukemia): 18.4 µM | TGI (RPMI-8226 leukemia): 34.9 µM | GI50 (RXF 393 renal): 22 µM | TGI (RXF 393 renal): 46.3 µM | GI50 (SF-268 CNS): 36.6 µM | TGI (SF-268 CNS): > 100 µM | GI50 (SF-295 CNS): 33.9 µM | TGI (SF-295 CNS): > 100 µM | GI50 (SF-539 CNS): 24.6 µM | TGI (SF-539 CNS): 63.1 µM | GI50 (SK-MEL-2 melanoma): 32.5 µM | TGI (SK-MEL-2 melanoma): 48.8 µM | GI50 (SK-MEL-28 melanoma): 22.5 µM | TGI (SK-MEL-28 melanoma): 43.9 µM | GI50 (SK-MEL-5 melanoma): 14.1 µM | TGI (SK-MEL-5 melanoma): 27.2 µM | GI50 (SK-OV-3 ovarian): 20 µM | TGI (SK-OV-3 ovarian): 48.8 µM | GI50 (SN12C renal): 44.7 µM | TGI (SN12C renal): > 100 µM | GI50 (SNB-19 CNS): 42.8 µM | TGI (SNB-19 CNS): > 100 µM | GI50 (SNB-75 CNS): 18.9 µM | TGI (SNB-75 CNS): 59.4 µM | GI50 (SR leukemia): 18.8 µM | TGI (SR leukemia): 33.1 µM | GI50 (SW-620 colon): 22.5 µM | TGI (SW-620 colon): 43.5 µM | GI50 (T-47D breast): 19.2 µM | TGI (T-47D breast): 38.4 µM | GI50 (TK-10 renal): 31.5 µM | TGI (TK-10 renal): 93.3 µM | GI50 (U251 glioblastoma): 24.1 µM | TGI (U251 glioblastoma): 55.5 µM | GI50 (UACC-257 melanoma): 19.2 µM | TGI (UACC-257 melanoma): 34.4 µM | GI50 (UACC-62 melanoma): 18.7 µM | TGI (UACC-62 melanoma): 40.8 µM
